{
  "source": "patent US10575752B2",
  "about": "“System and method for determination of a brainstem response state development” (SensoDetect AB, priority 2010, dated 2020)",
  "system": "brainstem",
  "test": "Test of the effect of oral methylphenidate on evoked averaged brainstem response in a patient with ADHD",
  "type": "in vivo, human",
  "method": "To emphasize the importance of using the subject as its own reference when conducting herein described tests, FIG. 8a-c is showing a test of the effect of oral methylphenidate medication in a patient with ADHD. In this test each of the train of sound pulses will repeatedly present sound pulses to the patient for thirty seconds and for each sound pulse presented to the subject a corresponding response signal is recorded. The response signal for each set of train of sound pulses is then averaged to obtain an evoked averaged brainstem response.\nIn FIG. 8a, a measuring with only unmodified sound pulses, i.e. the sound stimuli comprising only one train being a train of unmodified sound pulses 72. Sound stimuli were presented twice to the subject (at t0+0 and t0+60 sec) and the corresponding response signals were recorded and evoked averaged brainstem responses were established 74a, 74b. This was done when the patient was not under influence of methylphenidate medication, i.e. baseline or control state. The measured variable is here an absolute value 70 measured in μV of the amplitude of peak III. […] Both times the corresponding response signals were recorded and evoked averaged brainstem responses were established 74c, 74d.\nIn FIG. 8b, a measuring with only modified sound pulses, i.e. the sound stimuli comprising only one train being a train of modified sound pulses 73. Sound stimuli were presented twice to the subject (at t0+0 and t0+60 sec) and the corresponding response signals were recorded and evoked averaged brainstem responses were established 75a, 75b. This was done when the patient was not under influence of methylphenidate medication, i.e. baseline or control state. The measured variable is here an absolute value 71 measured in NV of the amplitude of peak III. […] Both times the corresponding response signals were recorded and evoked averaged brainstem responses were established 75c, 75d. […]",
  "data": [
    {"smiles": "COC(=O)C(c1ccccc1)C1CCCCN1", "note": "(stereo not drawn) [methylphenidate]", "values": [
      {"measurement": "methylphenidate effect on amplitude of peak III (absolute value), only modified sound pulses", "setting": "single train of modified sound pulses, t1+0 and t1+60 sec vs drug-free baseline, FIG. 8b", "result": "no detectable methylphenidate effect could be established"},
      {"measurement": "methylphenidate effect on amplitude of peak III (absolute value), only unmodified sound pulses", "setting": "single train of unmodified sound pulses, t1+0 and t1+60 sec vs drug-free baseline, FIG. 8a", "result": "no detectable methylphenidate effect could be established"},
      {"measurement": "methylphenidate effect on relative measure (modified train averaged evoked brainstem response as a percentage of the unmodified average evoked response)", "setting": "unmodified train followed by modified train, compared at t1+60 sec and t1+120 sec vs drug-free baseline, FIG. 8c", "result": "detectable methylphenidate effect could be seen"}
    ]}
  ]
}
